Reference: patent US8957097B2, “Hemi-phorboxazole A derivatives and methods of their use” (The Trustees Of The University Of Pennsylvania, priority 2009, dated 2015)
Converted amounts (≈) assume the structure as drawn. Like-named read-outs stand apart in the source and are kept apart here.

Key:
[1] = system: National Cancer Institute's panel of 60 human tumor cell lines; settings: mean over NCI panel of 60 human tumor cell lines; cited from earlier work
C. albicans ACTCC 14503 = assay: antifungal microbroth dilution assay, C. albicans ACTCC 14503; format: cell-based, Candida albicans; settings: for MIC: Candida albicans
Description: (§1) Tests of antifungal activity in microbroth dilution assay against pathogenic Candida strains was performed according to known methods. (National Committee for Clinical Laboratory Standards, 2002. Reference method for broth dilution antifungal susceptibility testing of yeast, 2nd ed. Approved standard M27-A2. National Committee for Clinical Laboratory Standards, Wayne, Pa.). For strains see: Mulder, R. J.; Shafer, C. M.; Dalisay, D. S.; Molinski, T. F. Bioorg. Med. Chem. Lett. 2009, 19, 2928-2930.

HCT-116 Colon = assay: tumor cell growth inhibitory activity, HCT-116 colon; format: cell-based, human; settings: for IC50: Homo sapiens
Description: (§2) Compounds of the invention were assayed for tumor cell growth inhibitory activity, in parallel with (+) phorboxazole A (1) hemi-phorboxazole A (3).

C. albicans UCD-FR1 = assay: antifungal microbroth dilution assay, C. albicans UCD-FR1; format: cell-based, Candida albicans; settings: for MIC: Candida albicans
Description: as §1

C. albicans 96-489 = assay: antifungal microbroth dilution assay, C. albicans 96-489; format: cell-based, Candida albicans
Description: as §1

SK-BR-3 Breast = assay: tumor cell growth inhibitory activity, SK-BR-3 breast; format: cell-based, human; settings: for IC50: Homo sapiens
Description: as §2

[2] = Table 6, HCT-116 colon tumor cells
[3] = Table 5, HCT-116 colon tumor cells
[4] = Table 6, SK-BR-3 breast tumor cells

| SMILES | C. albicans ACTCC 14503 MIC (C. albicans ACTCC 14503; Table 8, microbroth dilution) | HCT-116 Colon IC50 (HCT-116 Colon; [2]) | C. albicans UCD-FR1 MIC (C. albicans UCD-FR1; Table 8, microbroth dilution) | C. albicans 96-489 MIC (C. albicans 96-489; Table 8, microbroth dilution) | also measured |
| --- | --- | --- | --- | --- | --- |
| C=C1C[C@@H]2C[C@H]3C[C@@H](O)C[C@H](O3)c3coc(n3)/C=C\C[C@H]3O[C@@H](/C(C)=C/c4coc(C[C@]5(O)C[C@H](OC)C[C@H]([C@H](O)/C=C(C)/C=C/[C@@H](C/C=C/Br)OC)O5)n4)[C@H](C)[C@@H](OC(=O)/C=C\C[C@@H](C1)O2)[C@H]3C [Compound 2, Phorboxazole B] | – | – | – | – | GI50 [1]: 1.58 nM |
| C=C1C[C@@H]2C[C@@H]3CCO[C@@H](O3)c3cccc(c3)/C=C/C[C@H]3O[C@@H](/C(C)=C/c4ncco4)[C@H](C)[C@@H](OC(=O)/C=C\C[C@@H](C1)O2)[C@H]3C [Compound 27] | 4 µg/mL | 5.44 µg/mL | 8 µg/mL | 32 µg/mL | – |
| C=C1C[C@@H]2C[C@@H]3CCO[C@@H](O3)c3cccc(c3)/C=C/C[C@H]3O[C@@H](/C(C)=C/c4cccs4)[C@H](C)[C@@H](OC(=O)/C=C\C[C@@H](C1)O2)[C@H]3C [Compound 28] | 8 µg/mL | 5.96 µg/mL | 16 µg/mL | 32 µg/mL | – |
| C=C1C[C@@H]2C[C@@H]3CCO[C@@H](O3)c3coc(n3)/C=C/C[C@H]3O[C@@H](/C(C)=C/C#N)[C@H](C)[C@@H](OC(=O)/C=C/C[C@@H](C1)O2)[C@H]3C [Compound (E, E)-5] | – | – | – | – | C. albicans ACTCC 14503 MIC (C. albicans ACTCC 14503; Table 7, microbroth dilution): 4 µg/mL; HCT-116 Colon IC50 (HCT-116 Colon; [3]): 1.54 µg/mL; C. albicans UCD-FR1 MIC (C. albicans UCD-FR1; Table 7, microbroth dilution): 8 µg/mL; C. albicans 96-489 MIC (C. albicans 96-489; Table 7, microbroth dilution): 32 µg/mL |
| C=C1C[C@@H]2C[C@@H]3CCO[C@@H](O3)c3cccc(c3)/C=C/C[C@H]3O[C@@H](/C(C)=C/C#N)[C@H](C)[C@@H](OC(=O)/C=C/C[C@@H](C1)O2)[C@H]3C [Compound (E, E)-6] | >64 µg/mL | >6.25 µg/mL | >64 µg/mL | >64 µg/mL | – |
| C=C1C[C@@H]2C[C@@H]3CCO[C@@H](O3)c3coc(n3)/C=C/C[C@H]3O[C@@H](/C(C)=C/I)[C@H](C)[C@@H](OC(=O)/C=C/C[C@@H](C1)O2)[C@H]3C [Compound (E, E)-15] | – | – | – | – | C. albicans ACTCC 14503 MIC (C. albicans ACTCC 14503; Table 7, microbroth dilution): >64 µg/mL; HCT-116 Colon IC50 (HCT-116 Colon; [3]): >6.25 µg/mL; C. albicans UCD-FR1 MIC (C. albicans UCD-FR1; Table 7, microbroth dilution): >64 µg/mL; C. albicans 96-489 MIC (C. albicans 96-489; Table 7, microbroth dilution): >64 µg/mL |
| C=C1C[C@@H]2C[C@@H]3CCO[C@@H](O3)c3cccc(c3)/C=C/C[C@H]3O[C@@H](/C(C)=C/I)[C@H](C)[C@@H](OC(=O)/C=C/C[C@@H](C1)O2)[C@H]3C [Compound (E, E)-24] | >64 µg/mL | >6.25 µg/mL | >64 µg/mL | >64 µg/mL | – |
| C=C1C[C@@H]2C[C@@H]3CCO[C@@H](O3)c3cccc(c3)/C=C\C[C@H]3O[C@@H](/C(C)=C/C#N)[C@H](C)[C@@H](OC(=O)/C=C/C[C@@H](C1)O2)[C@H]3C [Compound (E, Z)-6] | >64 µg/mL | >6.25 µg/mL | >64 µg/mL | >64 µg/mL | – |
| C=C1C[C@@H]2C[C@@H]3CCO[C@@H](O3)c3cccc(c3)/C=C\C[C@H]3O[C@@H](/C(C)=C/I)[C@H](C)[C@@H](OC(=O)/C=C/C[C@@H](C1)O2)[C@H]3C [Compound (E, Z)-24] | >64 µg/mL | >6.25 µg/mL | >64 µg/mL | >64 µg/mL | – |
| C=C1C[C@@H]2C[C@@H]3CCO[C@@H](O3)c3coc(n3)/C=C/C[C@H]3O[C@@H](/C(C)=C/C#N)[C@H](C)[C@@H](OC(=O)/C=C\C[C@@H](C1)O2)[C@H]3C [Compound (Z, E)-5] | – | – | – | – | SK-BR-3 Breast IC50 (SK-BR-3 Breast; Table 5, SK-BR-3 breast tumor cells): >6.2 µg/mL; C. albicans ACTCC 14503 MIC (C. albicans ACTCC 14503; Table 7, microbroth dilution): 16 µg/mL; HCT-116 Colon IC50 (HCT-116 Colon; [3]): >6.2 µg/mL; C. albicans UCD-FR1 MIC (C. albicans UCD-FR1; Table 7, microbroth dilution): 16 µg/mL; C. albicans 96-489 MIC (C. albicans 96-489; Table 7, microbroth dilution): >64 µg/mL |
| C=C1C[C@@H]2C[C@@H]3CCO[C@@H](O3)c3cccc(c3)/C=C/C[C@H]3O[C@@H](/C(C)=C/C#N)[C@H](C)[C@@H](OC(=O)/C=C\C[C@@H](C1)O2)[C@H]3C [Compound (Z, E)-6] | – | 0.207 µg/mL | – | – | SK-BR-3 Breast IC50 (SK-BR-3 Breast; [4]): 0.258 µg/mL |
| C=C1C[C@@H]2C[C@@H]3CCO[C@@H](O3)c3coc(n3)/C=C/C[C@H]3O[C@@H](/C(C)=C/I)[C@H](C)[C@@H](OC(=O)/C=C\C[C@@H](C1)O2)[C@H]3C [Compound (Z, E)-15] | – | – | – | – | C. albicans ACTCC 14503 MIC (C. albicans ACTCC 14503; Table 7, microbroth dilution): >64 µg/mL; HCT-116 Colon IC50 (HCT-116 Colon; [3]): >6.25 µg/mL; C. albicans UCD-FR1 MIC (C. albicans UCD-FR1; Table 7, microbroth dilution): >64 µg/mL; C. albicans 96-489 MIC (C. albicans 96-489; Table 7, microbroth dilution): >64 µg/mL |
| C=C1C[C@@H]2C[C@@H]3CCO[C@@H](O3)c3cccc(c3)/C=C/C[C@H]3O[C@@H](/C(C)=C/I)[C@H](C)[C@@H](OC(=O)/C=C\C[C@@H](C1)O2)[C@H]3C [Compound (Z, E)-24] | >64 µg/mL | >6.25 µg/mL | >64 µg/mL | >64 µg/mL | – |
| C=C1C[C@@H]2C[C@@H]3C[C@@H](O)C[C@@H](O3)c3coc(n3)/C=C/C[C@H]3O[C@@H](/C(C)=C/C#N)[C@H](C)[C@@H](OC(=O)/C=C\C[C@@H](C1)O2)[C@H]3C [HEMI-PHORBOXAZOLE A, Hemi-Phorboxazole A] | >64 µg/mL | >6.2 µg/mL | >64 µg/mL | >64 µg/mL | IC50 (SK-BR-3 Breast; SK-BR-3, read-out: SK-BR-3 Breast IC50): > 6.2 µg/mL; SK-BR-3 Breast IC50 (SK-BR-3 Breast; [4]): >6.2 µg/mL; MIC (C. albicans ACTCC 14503; ACTCC14503, read-out: C. albicans ACTCC 14503 MIC): > 64 µg/mL; IC50 (HCT-116 Colon; HCT-116, read-out: HCT-116 Colon IC50): > 6.2 µg/mL; MIC (C. albicans UCD-FR1; UCDFR1, read-out: C. albicans UCD-FR1 MIC): > 64 µg/mL; MIC (C. albicans 96-489; Candida albicans, 96489, read-out: C. albicans 96-489 MIC): > 64 µg/mL |
| C=C1C[C@@H]2C[C@@H]3C[C@@H](O)C[C@@H](O3)c3coc(n3)/C=C/C[C@H]3O[C@@H](/C(C)=C/c4coc(C[C@]5(O)C[C@H](OC)C[C@H]([C@H](O)/C=C(C)/C=C/[C@@H](C/C=C/Br)OC)O5)n4)[C@H](C)[C@@H](OC(=O)/C=C\C[C@@H](C1)O2)[C@H]3C [Phorboxazole A] | 1.0 µg/mL | 0.00071 µg/mL | 2.0 µg/mL | 1.0 µg/mL | IC50 (SK-BR-3 Breast; Table 5, SK-BR-3 breast tumor cells, read-out: SK-BR-3 Breast IC50): 0.002 µg/mL (≈ 0.00195 µM); MIC (C. albicans ACTCC 14503; ACTCC14503, Table 7, microbroth dilution, read-out: C. albicans ACTCC 14503 MIC): 1 µg/mL (≈ 0.977 µM); GI50 [1]: 1.58 nM; IC50 (HCT-116 Colon; Table 5, HCT-116 colon tumor cells, read-out: HCT-116 Colon IC50): 0.00071 µg/mL (≈ 0.000693 µM); MIC (C. albicans UCD-FR1; UCDFR1, Table 7, microbroth dilution, read-out: C. albicans UCD-FR1 MIC): 2 µg/mL (≈ 1.95 µM); MIC (C. albicans 96-489; Candida albicans, 96489, Table 7, microbroth dilution, read-out: C. albicans 96-489 MIC): 1 µg/mL (≈ 0.977 µM) |
